Data: article PMC5572722, “Dimerization in tailoring uptake efficacy of the HSV-1 derived membranotropic peptide gH625” (Scientific Reports, 2017)
Positions of bridges follow the written chain, without caps; N, C: chain ends. Residues, ends and D or L forms follow the SMILES beside them. Chains are numbered I, II in the order given. No end group written: not given here.

Tests used:
[1] = lipid 0.1 mM, 25 °C, outer NBD reduced with 100 mM dithionite, average of three experiments
Procedure: The extent of lipid mixing between only the inner monolayers of vesicles in solution, labelled with NBD and Rho, was determined adding an aqueous reducing agent (dithionite) which eliminated the NBD fluorescence from the vesicle membranes’ outer monolayer.
Figure 2 Inner monolayer in DOPC/Chol 60/40 (mol/mol) (A) and DOPG/Chol 60/40 (mol/mol) (B). […] Lipid concentration is 0.1 mM. Percentage of inner monolayer fusion as a function of the peptide/lipid ratio is reported and each trace represents an average of three independent experiments.
Membrane fusion was monitored by the fluorescence resonance energy transfer assay (FRET)[70] at 25 °C. Two populations of LUVs, one labelled with 0.6 mol% of NBD (donor) and Rho (acceptor) and one unlabelled were mixed and the variation in NBD fluorescence due to membrane fusion was determined. After the addition of aliquots of peptides the change in donor emission (excitation wavelength 465 nm, emission wavelength 530 nm) was monitored. […] The 100% of fusion was determined upon the addition of Triton X-100 (0.05% v/v). All results are an average of at least three experiments. A cut off filter at 515 nm was used.
The dithionite was removed through size exclusion chromatography, Sephadex G-50 DNA Grade, (GE Healthcare, Pharmacia, Uppsala, Sweden) with buffer containing 10 mM TRIS, 100 mM NaCl, and 1 mM EDTA, pH 7.4.

[2] = Peptide aggregation, Thioflavin T (ThT) fluorescence; format: physicochemical; conditions: ThT 25 μM, 0.1 mM DOPG/Chol 60/40 LUVs, 100 mM NaCl, 10 mM Tris–HCl pH 7.4, 25 °C
Procedure: Figure 4 Panel A reports the quenching of tryptophan by acrylamide. Stern-Volmer plots of acrylamide quenching of gH625, gH625-H7, gH625-G7 in buffer (closed symbols) and in LUVs composed of DOPG/Chol 60/40 (mol/mol) (open symbols). Peptide concentration is 4 μM. Panel B reports the […] as a function of the peptide/lipid ratio of gH625, gH625-H7, gH625-G7 in buffer (closed symbols) and in 0.1 mM LUVs composed of DOPG/Chol 60/40 (mol/mol) (open symbols).
The three peptides are not aggregated in buffer as evidenced by the fact that the fluorescence remained unaltered after the addition of the peptides (see closed symbols). On the contrary, they all caused a progressive aggregation in LUVs as the fluorescence change increased dramatically.
Peptide aggregation was monitored using ThioflavinT (ThT), which combines rapidly with aggregated peptides producing a new excitation maximum at 450 nm (slit width, 5 nm) and an enhanced emission at 482 nm (slit width, 5 nm)[43]. This experiment was conducted in LUVs (final phospholipid concentration of 0.1 mM) and buffer containing 25 μM ThT in 100 mM NaCl, 10 mM Tris–HCl, pH 7.4. Fluorescence was measured before and after the addition of peptides. In particular, we tested the following peptide concentrations 0.005, 0.01, 0.015, 0.02, 0.03, 0.04, 0.05 and 0.07 mM at 25 °C. Aggregation (A) was determined according to the following equation7 %A=(Ff−F0)/(Fmax−F0)×100 where Ff is the value of fluorescence after peptide addition, F0 the initial fluorescence in the absence of peptide and Fmax is the fluorescence maximum obtained immediately after peptide addition. Kinetic data were obtained at a concentration of 4 μM.

[3] = Surface plasmon resonance binding to lipid bilayer, L1 chip, two-state model; conditions: affinity constant of second step, K2 = ka2/kd2
Excerpt: To investigate the mode of action of gH625-H7 and gH625-G7 and for comparisons with gH625[6], we used SPR. In a previous paper[7] we also reported the data for two control peptides: the melittin and the HIV fusion peptide (gp41-FP). Figure 6 reports the obtained sensorgrams of the binding and an increase of the RU signal intensity as a function of the peptide concentration can be observed. […] In particular, all the sensorgrams obtained for gH625[7] and gH625-G7 indicate the binding to the lipid surfaces is characterized by an initial fast association process which then slows down considerably towards the end of the peptide injection. The dissociation follows a similar trend, characterized by the signal falling rapidly at the end of injection when the peptide is no longer present and the buffer flow removes free or weekly bound peptide.
The average values for the rate constants obtained with the two-state model analysis are reported in Table 4 along with the affinity constant values (K A). The data clearly indicate the main influence on the overall binding constant of the fast association rate and slow dissociation rate of the first step.
We used a BIAcore 3000 analytical system (Biacore, Uppsala, Sweden) equipped with a L1 sensor chip which contains hydrophobic alkanethiol chains, with exposed polar head groups; a lipid bilayer was created by introducing liposomes to the chip. SUVs composed by DOPG/Chol (60/40) (80 μL, 0.5 mM) were applied to the chip surface at a flow rate of 2 μL/min. […] BSA was used as a negative control (25 μL, 50 μL/min […] in PBS) to confirm complete coverage of the nonspecific binding sites. Several sensorgrams were obtained with 30 μL of the peptide solutions injected at a flow rate of 5 μL/min, followed by PBS for 15 min to allow peptide dissociation. […]
Kinetic data were assessed through the χ^2 values, plots of the residuals from the model fitting and standard deviations. […]

Compound	fusion of the inner monolayer, DOPC/Chol LUVs [1]	peptide aggregation in LUVs [2]	K2 [3]	fusion of the inner monolayer, DOPG/Chol LUVs [1]
CC[C@H](C)[C@H](NC(=O)[C@H](CC(C)C)NC(=O)[C@H](C)NC(=O)[C@H](CC(N)=O)NC(=O)[C@H](Cc1ccc(O)cc1)NC(=O)[C@H](Cc1c[nH]cn1)NC(=O)[C@H](C)NC(=O)[C@H](Cc1c[nH]c2ccccc12)NC(=O)[C@H](CCCNC(=N)N)NC(=O)[C@@H](NC(=O)[C@H](CC(C)C)NC(=O)[C@@H](NC(=O)[C@H](CO)NC(=O)[C@H](C)NC(=O)[C@H](CC(C)C)NC(=O)CNC(=O)[C@@H](N)Cc1c[nH]cn1)[C@@H](C)O)[C@@H](C)O)C(=O)N[C@@H](CCCNC(=N)N)C(=O)N[C@@H](C)C(=O)N[C@@H](Cc1ccccc1)C(N)=O [gH625] (H-HGLASTLTRWAHYNALIRAF-NH2)	only a small fusion	lower aggregation at low peptide/lipid ratio	0.41	
CC[C@H](C)[C@H](NC(=O)[C@H](CC(C)C)NC(=O)[C@H](C)NC(=O)[C@H](CC(N)=O)NC(=O)[C@H](Cc1ccc(O)cc1)NC(=O)[C@H](Cc1c[nH]cn1)NC(=O)[C@H](C)NC(=O)[C@H](Cc1c[nH]c2ccccc12)NC(=O)[C@H](CCCNC(=N)N)NC(=O)[C@@H](NC(=O)[C@H](CC(C)C)NC(=O)[C@@H](NC(=O)[C@H](CO)NC(=O)[C@H](C)NC(=O)[C@H](CC(C)C)NC(=O)CNC(=O)[C@@H](N)Cc1c[nH]cn1)[C@@H](C)O)[C@@H](C)O)C(=O)N[C@@H](CCCNC(=N)N)C(=O)N[C@@H](C)C(=O)N[C@@H](Cc1ccccc1)C(=O)NCC(=O)NCC(=O)NCC(=O)N[C@@H](CCCCN)C(=O)N[C@@H](CCCCN)C(=O)N[C@@H](CCCCN)C(=O)N[C@@H](CCCCN)C(N)=O [gH625-G7] (H-HGLASTLTRWAHYNALIRAFGGGKKKK-NH2)	only a small fusion	oligomerize significantly	5.72	
I: HGLASTLTRWAHYNALIRAFGCGKKKK-NH2 / II: HGLASTLTRWAHYNALIRAFGCGKKKK-NH2 (disulfide I:22-II:22) [gH625-H7]	complete fusion	oligomerize significantly	3.89	complete fusion
